Key:
Format in all cases: cell-based
[1] = biological target: T1, GSPT1 (Homo sapiens, UniProt P15170+Q96SW2); assay: Western-blot assay, substrate protein degradation in hPBMCs: GSPT1; conditions: for substrate protein remaining % GSPT1: 24 hours of compound treatment, 50 nM and 500 nM; for GSPT1 substrate protein remaining %: compounds at 50 nM and 500 nM, 24 hours
T1 construct: effects of the compounds of the present disclosure on the expression of target proteins in cells; endogenous in cells; host or cells: human PBMCs (hPBMCs)
T1 sequence (P15170 whole entry): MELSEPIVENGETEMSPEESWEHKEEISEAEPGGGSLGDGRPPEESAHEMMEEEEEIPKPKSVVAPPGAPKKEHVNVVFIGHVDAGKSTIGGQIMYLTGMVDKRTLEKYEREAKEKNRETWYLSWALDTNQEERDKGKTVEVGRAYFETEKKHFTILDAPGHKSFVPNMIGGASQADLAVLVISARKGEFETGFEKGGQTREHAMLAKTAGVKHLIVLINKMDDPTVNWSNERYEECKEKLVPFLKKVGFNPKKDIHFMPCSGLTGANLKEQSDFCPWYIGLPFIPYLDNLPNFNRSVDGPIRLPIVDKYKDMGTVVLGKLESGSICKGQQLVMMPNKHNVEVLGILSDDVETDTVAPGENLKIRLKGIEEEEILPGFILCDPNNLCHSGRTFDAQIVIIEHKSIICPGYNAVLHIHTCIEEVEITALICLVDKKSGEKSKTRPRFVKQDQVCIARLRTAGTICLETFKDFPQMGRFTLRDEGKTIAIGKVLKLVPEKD
T1 sequence (Q96SW2 whole entry): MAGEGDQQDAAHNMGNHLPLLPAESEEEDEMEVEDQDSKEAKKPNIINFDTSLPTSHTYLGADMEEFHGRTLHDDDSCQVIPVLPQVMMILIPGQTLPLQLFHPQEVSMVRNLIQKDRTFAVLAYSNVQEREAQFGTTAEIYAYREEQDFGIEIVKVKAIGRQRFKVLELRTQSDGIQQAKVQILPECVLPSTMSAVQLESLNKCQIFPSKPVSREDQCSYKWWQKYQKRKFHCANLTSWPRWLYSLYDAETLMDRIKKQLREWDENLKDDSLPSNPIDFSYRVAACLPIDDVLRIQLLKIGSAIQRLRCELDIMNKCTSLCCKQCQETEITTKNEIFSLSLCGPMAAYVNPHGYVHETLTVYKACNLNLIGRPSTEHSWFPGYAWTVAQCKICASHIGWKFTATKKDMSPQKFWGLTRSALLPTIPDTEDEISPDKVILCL
T1 sequence (Q16531 whole entry partner): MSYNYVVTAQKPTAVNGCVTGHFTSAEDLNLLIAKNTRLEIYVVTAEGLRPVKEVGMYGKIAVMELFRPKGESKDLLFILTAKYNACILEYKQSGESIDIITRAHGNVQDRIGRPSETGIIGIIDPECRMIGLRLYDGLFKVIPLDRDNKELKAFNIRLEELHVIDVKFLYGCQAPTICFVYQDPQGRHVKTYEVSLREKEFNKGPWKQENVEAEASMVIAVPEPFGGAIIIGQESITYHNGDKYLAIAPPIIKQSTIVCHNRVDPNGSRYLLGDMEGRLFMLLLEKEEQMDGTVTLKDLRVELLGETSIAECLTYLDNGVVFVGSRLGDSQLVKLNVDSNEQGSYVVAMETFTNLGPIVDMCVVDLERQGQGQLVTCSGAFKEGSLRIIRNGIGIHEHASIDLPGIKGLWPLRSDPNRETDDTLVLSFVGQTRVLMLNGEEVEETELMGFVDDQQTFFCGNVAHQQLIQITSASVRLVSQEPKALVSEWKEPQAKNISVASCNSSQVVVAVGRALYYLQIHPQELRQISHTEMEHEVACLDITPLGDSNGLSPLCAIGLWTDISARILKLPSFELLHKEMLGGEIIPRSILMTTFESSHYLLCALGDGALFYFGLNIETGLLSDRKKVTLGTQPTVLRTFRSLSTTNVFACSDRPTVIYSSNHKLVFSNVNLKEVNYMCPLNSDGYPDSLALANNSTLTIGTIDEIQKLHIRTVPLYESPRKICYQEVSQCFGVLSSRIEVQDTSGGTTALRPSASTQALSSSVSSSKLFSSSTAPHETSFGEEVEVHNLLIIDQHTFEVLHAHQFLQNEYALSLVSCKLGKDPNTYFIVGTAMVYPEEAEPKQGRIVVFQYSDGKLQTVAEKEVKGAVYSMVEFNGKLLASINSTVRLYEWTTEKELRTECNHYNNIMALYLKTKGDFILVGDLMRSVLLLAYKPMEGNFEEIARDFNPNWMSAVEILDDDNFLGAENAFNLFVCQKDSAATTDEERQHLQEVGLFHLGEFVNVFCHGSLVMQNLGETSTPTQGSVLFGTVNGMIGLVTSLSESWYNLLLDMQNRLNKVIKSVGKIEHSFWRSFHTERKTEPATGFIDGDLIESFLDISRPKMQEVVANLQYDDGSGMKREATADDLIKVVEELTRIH

[2] = biological target: T2, IKZF1 (Homo sapiens, UniProt Q13422+Q96SW2); assay: Western-blot assay, substrate protein degradation in hPBMCs: IKZF1; conditions: for substrate protein remaining % IKZF1: 24 hours of compound treatment, 50 nM and 500 nM; for IKZF1 substrate protein remaining %: compounds at 50 nM and 500 nM, 24 hours
T2 construct: effects of the compounds of the present disclosure on the expression of target proteins in cells; endogenous in cells; host or cells: human PBMCs (hPBMCs)
T2 sequence (Q13422 whole entry): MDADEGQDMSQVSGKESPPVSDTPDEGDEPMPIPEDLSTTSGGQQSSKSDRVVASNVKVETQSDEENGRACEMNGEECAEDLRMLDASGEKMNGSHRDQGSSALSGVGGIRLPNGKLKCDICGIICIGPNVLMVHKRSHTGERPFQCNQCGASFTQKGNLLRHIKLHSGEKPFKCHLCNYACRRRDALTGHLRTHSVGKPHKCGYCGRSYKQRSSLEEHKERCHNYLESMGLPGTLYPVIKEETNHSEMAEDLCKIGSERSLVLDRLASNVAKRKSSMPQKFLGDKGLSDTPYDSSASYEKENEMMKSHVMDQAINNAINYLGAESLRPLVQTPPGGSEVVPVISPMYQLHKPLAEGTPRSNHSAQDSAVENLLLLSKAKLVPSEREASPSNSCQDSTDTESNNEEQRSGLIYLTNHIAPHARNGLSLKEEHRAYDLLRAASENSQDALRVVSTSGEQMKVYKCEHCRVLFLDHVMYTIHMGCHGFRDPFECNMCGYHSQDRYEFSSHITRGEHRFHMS
T2 sequence (Q96SW2 whole entry): as the sequence (Q96SW2 whole entry) above
T2 sequence (Q16531 whole entry partner): as the sequence (Q16531 whole entry partner) above

[3] = biological target: T3, WEE1 (Homo sapiens, UniProt P30291+Q96SW2); assay: Western-blot assay, substrate protein degradation in hPBMCs: WEE1; conditions: for substrate protein remaining % WEE1: 24 hours of compound treatment, 50 nM and 500 nM; for WEE1 substrate protein remaining %: compounds at 50 nM and 500 nM, 24 hours
T3 construct: effects of the compounds of the present disclosure on the expression of target proteins in cells; endogenous in cells; host or cells: human PBMCs (hPBMCs)

[4] = biological target: T4, IKZF3 (Homo sapiens, UniProt Q96SW2+Q9UKT9); assay: Western-blot assay, substrate protein degradation in hPBMCs: IKZF3; conditions: for substrate protein remaining % IKZF3: 24 hours of compound treatment, 50 nM and 500 nM; for IKZF3 substrate protein remaining %: compounds at 50 nM and 500 nM, 24 hours
T4 construct: effects of the compounds of the present disclosure on the expression of target proteins in cells; endogenous in cells; host or cells: human PBMCs (hPBMCs)
T4 sequence (Q9UKT9 whole entry): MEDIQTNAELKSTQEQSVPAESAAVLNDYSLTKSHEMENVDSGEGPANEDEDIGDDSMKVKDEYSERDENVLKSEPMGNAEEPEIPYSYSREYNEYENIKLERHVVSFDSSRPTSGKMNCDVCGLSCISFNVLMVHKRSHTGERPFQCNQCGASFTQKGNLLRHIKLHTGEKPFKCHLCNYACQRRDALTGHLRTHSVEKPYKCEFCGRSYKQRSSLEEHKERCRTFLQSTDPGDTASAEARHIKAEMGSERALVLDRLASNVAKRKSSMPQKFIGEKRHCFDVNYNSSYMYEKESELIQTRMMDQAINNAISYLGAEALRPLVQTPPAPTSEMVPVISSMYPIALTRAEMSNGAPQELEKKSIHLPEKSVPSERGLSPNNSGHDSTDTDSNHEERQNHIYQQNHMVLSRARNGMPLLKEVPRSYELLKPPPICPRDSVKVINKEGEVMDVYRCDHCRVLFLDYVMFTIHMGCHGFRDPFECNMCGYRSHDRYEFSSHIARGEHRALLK
T4 sequence (Q96SW2 whole entry): as the sequence (Q96SW2 whole entry) above
T4 sequence (Q16531 whole entry partner): as the sequence (Q16531 whole entry partner) above

[5] = biological target: T5, CK1α (Homo sapiens, UniProt P48729+Q96SW2); assay: Western-blot assay, substrate protein degradation in hPBMCs: CK1α; conditions: for substrate protein remaining % CK1α: 24 hours of compound treatment, 50 nM and 500 nM; for CK1α substrate protein remaining %: compounds at 50 nM and 500 nM, 24 hours
T5 construct: effects of the compounds of the present disclosure on the expression of target proteins in cells; endogenous in cells; host or cells: human PBMCs (hPBMCs)
T5 sequence (P48729 whole entry): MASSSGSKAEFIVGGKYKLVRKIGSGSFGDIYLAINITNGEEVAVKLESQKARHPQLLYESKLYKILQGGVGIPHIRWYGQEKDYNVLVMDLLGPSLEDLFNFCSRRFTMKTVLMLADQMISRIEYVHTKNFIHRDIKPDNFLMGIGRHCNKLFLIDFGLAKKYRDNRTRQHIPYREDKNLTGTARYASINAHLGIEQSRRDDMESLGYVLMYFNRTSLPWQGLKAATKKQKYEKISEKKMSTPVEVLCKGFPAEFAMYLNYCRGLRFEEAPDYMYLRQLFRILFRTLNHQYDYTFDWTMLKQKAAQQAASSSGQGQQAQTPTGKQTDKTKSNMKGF
T5 sequence (Q96SW2 whole entry): as the sequence (Q96SW2 whole entry) above
T5 sequence (Q16531 whole entry partner): as the sequence (Q16531 whole entry partner) above

[6] = biological target: T6, IKZF2 (Homo sapiens, UniProt Q96SW2+Q9UKS7); assay: Western-blot assay, substrate protein degradation in hPBMCs: IKZF2; conditions: for substrate protein remaining % IKZF2: 24 hours of compound treatment, 50 nM and 500 nM; for IKZF2 substrate protein remaining %: compounds at 50 nM and 500 nM, 24 hours
T6 construct: effects of the compounds of the present disclosure on the expression of target proteins in cells; endogenous in cells; host or cells: human PBMCs (hPBMCs)
T6 sequence (Q9UKS7 whole entry): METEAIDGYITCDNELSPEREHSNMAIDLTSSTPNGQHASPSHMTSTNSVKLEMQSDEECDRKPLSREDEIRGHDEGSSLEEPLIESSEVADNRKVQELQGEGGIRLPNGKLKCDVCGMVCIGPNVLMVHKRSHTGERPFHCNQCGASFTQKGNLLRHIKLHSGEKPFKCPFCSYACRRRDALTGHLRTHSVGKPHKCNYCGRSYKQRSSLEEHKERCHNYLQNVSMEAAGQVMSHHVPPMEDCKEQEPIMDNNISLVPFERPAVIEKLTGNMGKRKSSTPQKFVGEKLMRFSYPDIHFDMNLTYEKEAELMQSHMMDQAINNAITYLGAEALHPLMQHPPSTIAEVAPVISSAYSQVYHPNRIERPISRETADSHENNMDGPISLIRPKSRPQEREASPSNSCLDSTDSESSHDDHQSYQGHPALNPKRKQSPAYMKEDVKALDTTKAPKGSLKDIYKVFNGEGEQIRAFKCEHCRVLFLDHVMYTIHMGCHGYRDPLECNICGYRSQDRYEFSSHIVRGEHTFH
T6 sequence (Q96SW2 whole entry): as the sequence (Q96SW2 whole entry) above
T6 sequence (Q16531 whole entry partner): as the sequence (Q16531 whole entry partner) above

Compound | substrate protein remaining % GSPT1 [1] | GSPT1 substrate protein remaining % [1] | substrate protein remaining % IKZF1 [2] | IKZF1 substrate protein remaining % [2] | substrate protein remaining % WEE1 [3] | WEE1 substrate protein remaining % [3] | substrate protein remaining % IKZF3 [4] | IKZF3 substrate protein remaining % [4] | substrate protein remaining % CK1α [5] | CK1α substrate protein remaining % [5] | substrate protein remaining % IKZF2 [6] | IKZF2 substrate protein remaining % [6]
O=C1CCN(N2Cc3cc(CN4CCN(c5nccc(I)c5F)CC4)ccc3C2=O)C(=O)N1 [GT-05406, 1-(5-((4-(3-fluoro-4-iodopyridin-2-yl)piperazin-1-yl)methyl)-1-oxoisoindolin-2-yl)dihydropyrimidine-2,4(1H,3H)-dione] | A (0% ≤ substrate protein remaining % ≤ 80%) | A ("A" is defined as 0% ≤ substrate protein remaining % ≤ 80%) | B (80%< substrate protein remaining %≤ 100%) | B ("B" is defined as 80%< substrate protein remaining %≤ 100%) | B (80%< substrate protein remaining %≤ 100%) | A ("A" is defined as 0% ≤ substrate protein remaining % ≤ 80%) | B (80%< substrate protein remaining %≤ 100%) | B ("B" is defined as 80%< substrate protein remaining %≤ 100%) | B (80%< substrate protein remaining %≤ 100%) | B ("B" is defined as 80%< substrate protein remaining %≤ 100%) | B (80%< substrate protein remaining %≤ 100%) | A ("A" is defined as 0% ≤ substrate protein remaining % ≤ 80%)
O=C1CCN(N2Cc3cc(CN4CCN(c5nccc(Cl)c5Br)CC4)ccc3C2=O)C(=O)N1 [GT-05432, 1-(5-((4-(3-bromo-4-chloropyridin-2-yl)piperazin-1-yl)methyl)-1-oxoisoindolin-2-yl)dihydropyrimidine-2,4(1H,3H)-dione] | A (0% ≤ substrate protein remaining % ≤ 80%) | B ("B" is defined as 80%< substrate protein remaining %≤ 100%) | B (80%< substrate protein remaining %≤ 100%) | B ("B" is defined as 80%< substrate protein remaining %≤ 100%) | A (0% ≤ substrate protein remaining % ≤ 80%) | A ("A" is defined as 0% ≤ substrate protein remaining % ≤ 80%) | B (80%< substrate protein remaining %≤ 100%) | B ("B" is defined as 80%< substrate protein remaining %≤ 100%) | B (80%< substrate protein remaining %≤ 100%) | B ("B" is defined as 80%< substrate protein remaining %≤ 100%) | B (80%< substrate protein remaining %≤ 100%) | B ("B" is defined as 80%< substrate protein remaining %≤ 100%)
O=C1CCN(N2Cc3cc(CN4CCN(c5ncc(C(F)(F)F)cc5Cl)CC4)ccc3C2=O)C(=O)N1 [GT-05433, 1-(5-((4-(3-chloro-5-(trifluoromethyl)pyridin-2-yl)piperazin-1-yl)methyl)-1-oxoisoindolin-2-yl)dihydropyrimidine-2,4(1H,3H)-dione] | A (0% ≤ substrate protein remaining % ≤ 80%) | A ("A" is defined as 0% ≤ substrate protein remaining % ≤ 80%) | B (80%< substrate protein remaining %≤ 100%) | B ("B" is defined as 80%< substrate protein remaining %≤ 100%) | A (0% ≤ substrate protein remaining % ≤ 80%) | A ("A" is defined as 0% ≤ substrate protein remaining % ≤ 80%) | B (80%< substrate protein remaining %≤ 100%) | B ("B" is defined as 80%< substrate protein remaining %≤ 100%) | B (80%< substrate protein remaining %≤ 100%) | B ("B" is defined as 80%< substrate protein remaining %≤ 100%) | A (0% ≤ substrate protein remaining % ≤ 80%) | B ("B" is defined as 80%< substrate protein remaining %≤ 100%)
O=C1CCN(N2Cc3cc(CN4CCN(c5cccnc5)CC4)ccc3C2=O)C(=O)N1 [GT-05434, 1-(1-oxo-5-((4-(pyridin-3-yl)piperazin-1-yl)methyl)isoindolin-2-yl)dihydropyrimidine-2,4(1H,3H)-dione] | A (0% ≤ substrate protein remaining % ≤ 80%) | A ("A" is defined as 0% ≤ substrate protein remaining % ≤ 80%) | B (80%< substrate protein remaining %≤ 100%) | B ("B" is defined as 80%< substrate protein remaining %≤ 100%) | A (0% ≤ substrate protein remaining % ≤ 80%) | A ("A" is defined as 0% ≤ substrate protein remaining % ≤ 80%) | B (80%< substrate protein remaining %≤ 100%) | B ("B" is defined as 80%< substrate protein remaining %≤ 100%) | A (0% ≤ substrate protein remaining % ≤ 80%) | B ("B" is defined as 80%< substrate protein remaining %≤ 100%) | A (0% ≤ substrate protein remaining % ≤ 80%) | B ("B" is defined as 80%< substrate protein remaining %≤ 100%)
O=C1CCN(N2Cc3cc(CN4CCN(c5ccc(Cl)nc5)CC4)ccc3C2=O)C(=O)N1 [GT-05435, 1-(5-((4-(6-chloropyridin-3-yl)piperazin-1-yl)methyl)-1-oxoisoindolin-2-yl)dihydropyrimidine-2,4(1H,3H)-dione] | – | A ("A" is defined as 0% ≤ substrate protein remaining % ≤ 80%) | – | B ("B" is defined as 80%< substrate protein remaining %≤ 100%) | – | A ("A" is defined as 0% ≤ substrate protein remaining % ≤ 80%) | – | B ("B" is defined as 80%< substrate protein remaining %≤ 100%) | – | B ("B" is defined as 80%< substrate protein remaining %≤ 100%) | – | B ("B" is defined as 80%< substrate protein remaining %≤ 100%)
O=C1CCN(N2Cc3cc(CN4CCN(c5cncc(Cl)c5Cl)CC4)ccc3C2=O)C(=O)N1 [GT-05436, 1-(5-((4-(4,5-dichloropyridin-3-yl)piperazin-1-yl)methyl)-1-oxoisoindolin-2-yl)dihydropyrimidine-2,4(1H,3H)-dione] | A (0% ≤ substrate protein remaining % ≤ 80%) | A ("A" is defined as 0% ≤ substrate protein remaining % ≤ 80%) | B (80%< substrate protein remaining %≤ 100%) | B ("B" is defined as 80%< substrate protein remaining %≤ 100%) | A (0% ≤ substrate protein remaining % ≤ 80%) | A ("A" is defined as 0% ≤ substrate protein remaining % ≤ 80%) | B (80%< substrate protein remaining %≤ 100%) | B ("B" is defined as 80%< substrate protein remaining %≤ 100%) | B (80%< substrate protein remaining %≤ 100%) | B ("B" is defined as 80%< substrate protein remaining %≤ 100%) | B (80%< substrate protein remaining %≤ 100%) | B ("B" is defined as 80%< substrate protein remaining %≤ 100%)
O=C1CCN(N2Cc3cc(CN4CCN(c5ccncc5)CC4)ccc3C2=O)C(=O)N1 [GT-05437, 1-(1-oxo-5-((4-(pyridin-4-yl)piperazin-1-yl)methyl)isoindolin-2-yl)dihydropyrimidine-2,4(1H,3H)-dione] | A (0% ≤ substrate protein remaining % ≤ 80%) | – | B (80%< substrate protein remaining %≤ 100%) | – | B (80%< substrate protein remaining %≤ 100%) | – | B (80%< substrate protein remaining %≤ 100%) | – | B (80%< substrate protein remaining %≤ 100%) | – | B (80%< substrate protein remaining %≤ 100%) | –
Cc1cc(N2CCN(Cc3ccc4c(c3)CN(N3CCC(=O)NC3=O)C4=O)CC2)ccn1 [GT-05438, 1-(5-((4-(2-methylpyridin-4-yl)piperazin-1-yl)methyl)-1-oxoisoindolin-2-yl)dihydropyrimidine-2,4(1H,3H)-dione] | A (0% ≤ substrate protein remaining % ≤ 80%) | – | A (0% ≤ substrate protein remaining % ≤ 80%) | – | A (0% ≤ substrate protein remaining % ≤ 80%) | – | A (0% ≤ substrate protein remaining % ≤ 80%) | – | A (0% ≤ substrate protein remaining % ≤ 80%) | – | B (80%< substrate protein remaining %≤ 100%) | –

— patent publication EP4722207A1, “OXOISOINDOLINYL-SUBSTITUTED TETRAHYDROPYRIMIDINEDIONE DERIVATIVE AND USE THEREOF” (Gluetacs Therapeutics (Shanghai) Co., Ltd., priority 2023, dated 2024)
